Experimental data reported in patent publication US10988474B2, “Compounds acting at multiple prostaglandin receptors giving a general anti-inflammatory response” (ALLERGAN, INC., priority 2011, dated 2021).

Assays:
[1] = target: T1, human prostanoid DP1 receptor (Homo sapiens, UniProt Q13258); test: FLIPR Ca2+ signaling PG antagonist assay, DP1 stable cell line; type: cell-based; conditions: HEK-293 EBNA cells, human recombinant DP1 with chimeric Gqs; standard agonist BW 245C; read-out: DP (Kb, PG antagonist activity)
T1 construct: expressed in transfected cells
T1 sequence (Q13258 1-359): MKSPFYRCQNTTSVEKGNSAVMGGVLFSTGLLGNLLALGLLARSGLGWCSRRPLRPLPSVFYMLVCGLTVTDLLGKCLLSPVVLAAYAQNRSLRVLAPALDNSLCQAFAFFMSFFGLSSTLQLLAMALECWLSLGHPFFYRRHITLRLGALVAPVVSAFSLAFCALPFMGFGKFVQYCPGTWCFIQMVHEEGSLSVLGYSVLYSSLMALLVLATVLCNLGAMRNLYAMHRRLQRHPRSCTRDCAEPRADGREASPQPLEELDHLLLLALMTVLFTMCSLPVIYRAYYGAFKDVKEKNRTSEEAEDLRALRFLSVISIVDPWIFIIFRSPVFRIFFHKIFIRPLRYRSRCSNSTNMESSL
Experimental: (§1) The above compounds were tested for PG antagonist activity as follows using human recombinant prostanoid receptor (DP1, EP1-4, FP, IP and TP) stable cell lines: In order to measure the response of Gs and Gi coupled prostanoid receptors as a Ca^2+ signal, chimeric G protein cDNAs were used. Stable cell lines over-expressing human prostanoid DP1, EP1-4, FP, IP, and TP receptors were established as follows:
(§2) Briefly, human prostanoid DP1, EP2, and EP4 receptor cDNAs were co-transfected with chimeric Gqs cDNA containing a haemagglutanin (HA) epitope; human prostanoid EP3 receptors were co-transfected with chimeric Gqi-HA; human EP1, FP, IP, and TP receptor cDNAs were expressed with no exogenous G-proteins. Gqs and Gqi chimeric cDNAs (Molecular Devices, Sunnyvale, Calif., U.S.A.), as well as cDNAs of prostanoid receptors, were cloned into a pCEP4 vector with a hygromycin B selection marker. Transfection into HEK-293 EBNA (Epstein-Barr virus nuclear antigen) cells was achieved by the FuGENE 6 transfection Reagent (Roche Applied Science, Indianapolis, Ind., USA). Stable transfectants were selected according to hygromycin resistance. Because Gqs and Gqi contained an HA epitope, G-protein expression was detected by Western blotting analysis using anti-mouse HA monoclonal antibody and horseradish peroxidase (HRP)-conjugated secondary antibody, while functional expression of prostanoid receptors was detected by FLIPR screening (Matias et al., 2004). These stable cell lines were validated using previously published antagonists at 10 μM against serial dilutions of standard agonists by FLIPR functional assays for Ca^2+ Signaling (as described below).
(§3) Ca^2+ signaling studies were performed using a FLIPR TETRA system (Molecular Devices, Sunnyvale, Calif., USA) in the 384-format. This is a high-throughput instrument for cell-based assays to monitor Ca^2+ signaling associated with GPCRs and ion channels. Cells were seeded at a density of 5×10^4 cells/well in BioCoat poly-D-lysine coated, black wall, clear bottom 384-well plates (BD Biosciences, Franklin lakes, NJ, USA) and allowed to attach overnight in an incubator at 37° C. The cells were then washed twice with HBSS-HEPES buffer (Hanks' balanced salt solution without bicarbonate and phenol red, 20 mM HEPES, pH 7.4) using an ELx405 Select CW Microplate Washer (BioTek, Winooski, Vt., USA). After 60 min of dye-loading in the dark using the Ca^2+-sensitive dye Fluo-4AM (Invitrogen, Carlsbad, Calif., USA), at a final concentration of 2×10^−6M, the plates were washed 4 times with HBSS-HEPES buffer to remove excess dye and leaving 50 μl of buffer in each well. The plates were then placed in the FLIPR TETRA instrument and allowed to equilibrate at 37° C. Compounds were added in a 25 μl volume to each well to give final concentrations of 0.1 μM, 0.3 μM, 1 μM, 3 μM, 10 μM, and 30 μM; or 0.067 μM, 0.1 μM, 0.2 μM, 0.3 μM, 0.67 μM, and 1 μM for cells over-expressing TP receptors. After 4.5 minutes, a 7-point serial dilution of the standard agonist for the corresponding receptor, in a 25 μl volume was injected at the final concentrations from 10^−11M to 10^−5M in 10-fold serial dilution increments for cells expressing human recombinant DP1, EP1, EP2, EP3, EP4, FP, and IP receptors. The dose range for the standard agonist for human recombinant TP receptors was from 10^−12M to 10^−6M. HBSS-HEPES buffer was used as the negative control for the standard agonists. Cells were excited with LED (light emitting diode) excitation at 470-495 nm and emission was measured through an emission filter at 515-575 nm. Assay plates were read for 3.5 minutes using the FLIPR^TETRA. The peak increase in fluorescence intensity was recorded for each well. On each plate, negative controls, dose response of positive controls, and co-treatments of antagonist-agonist for each dose were in triplicates. Standard agonists were as follows: DP=BW 245C, EP1-EP4=PGE2, FP=17-phenyl-PGF2α, IP=Cicaprost, and TP=U-46619. […]

[2] = target: T2, human prostanoid EP1 receptor (Homo sapiens, UniProt P34995); test: FLIPR Ca2+ signaling PG antagonist assay, EP1 stable cell line; type: cell-based; conditions: HEK-293 EBNA cells, human recombinant EP1, no exogenous G-protein; standard agonist PGE2
T2 construct: expressed in transfected cells
T2 sequence (P34995 1-402): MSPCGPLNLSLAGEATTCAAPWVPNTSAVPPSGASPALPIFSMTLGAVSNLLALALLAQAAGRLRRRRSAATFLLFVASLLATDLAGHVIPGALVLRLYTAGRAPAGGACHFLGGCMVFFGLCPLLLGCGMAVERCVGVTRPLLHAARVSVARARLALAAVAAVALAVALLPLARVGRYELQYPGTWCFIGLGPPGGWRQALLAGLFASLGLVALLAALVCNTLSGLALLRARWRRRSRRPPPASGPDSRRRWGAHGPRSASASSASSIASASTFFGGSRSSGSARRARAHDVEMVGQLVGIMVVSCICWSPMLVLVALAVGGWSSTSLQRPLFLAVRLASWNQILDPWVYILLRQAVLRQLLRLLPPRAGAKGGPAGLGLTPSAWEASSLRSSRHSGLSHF
Experimental: as §1, §2, §3

| SMILES | Kb [1] [nM] | Kb [2] [nM] |
| --- | --- | --- |
| Cc1nn(Cc2cc(C(F)(F)F)ccc2OCC(C)C)c2ccc(C(=O)O)cc12 [Example 25, 1-(2-Isobutoxy-5-Trifluoromethyl-Benzyl)-3-Methyl-1H-Indazole-5-Carboxylic Acid] | 220 | 27 |
| O=C(O)c1ccc2c(cnn2Cc2cc(Br)ccc2OCC2CC2)c1 [Example 15, 1-(5-Bromo-2-Cyclopropylmethoxy-Benzyl)-1H-Indazole-5-Carboxylic Acid] | 1800 | 190 |
| CC(C)COc1ccc(Cl)cc1Cn1cc2c(C(=O)O)cccc2n1 [Example 37, 2-(5-Chloro-2-Isobutoxy-Benzyl)-2H-Indazole-4-Carboxylic Acid] | 1300 | 480 |
| O=C(O)c1ccc2c(cnn2Cc2cc(Br)ccc2OCC2CCCC2)c1 [Example 14, 1-(5-Bromo-2-Cyclopentylmethoxy-Benzyl)-1H-Indazole-5-Carboxylic Acid] | 600 | 20 |
| CC(C)COc1c(F)cc(Cl)cc1Cn1ncc2cc(C(=O)O)ccc21 [Example 47, 1-(5-Chloro-3-Fluoro-2-Isobutoxy-Benzyl)-1H-Indazole-5-Carboxylic Acid] | 700 | 2000 |
| CCC(CC)COc1ccc(Cl)cc1Cn1ncc2cc(C(N)=O)ncc21 [Example 62, 1-[5-Chloro-2-(2-Ethyl-Butoxy)-Benzyl]-1H-Pyrazolo[3,4-C]Pyridine-5-Carboxylic Acid Amide] | 5800 | ≥ 10000 |
| O=C(O)c1ccc2cn(Cc3cc(Br)ccc3OCC3CCCC3)nc2c1 [Example 45, 2-(5-Bromo-2-Cyclopentylmethoxy-Benzyl)-2H-Indazole-6-Carboxylic Acid] | 2800 | 23 |
| Cc1cc2cc(C(=O)O)ccc2n1Cc1cc(Br)ccc1OCC(C)C [Example 66, 1-(5-Bromo-2-Isobutoxy-Benzyl)-2-Methyl-1H-Indole-5-Carboxylic Acid] | ≥ 10000 | 50 |
| Cc1nn(Cc2cc(Br)ccc2OCC(C)C)c2ccc(C(=O)O)cc12 [Example 21, 1-(5-Bromo-2-Isobutoxy-Benzyl)-3-Methyl-1H-Indazole-5-Carboxylic Acid] | 100 | 14 |
| CCC(CC)COc1ccc(Cl)cc1Cn1ncc2ccc(C(=O)O)cc21 [Example 46, 1-[5-Chloro-2-(2-Ethyl-Butoxy)-Benzyl]-1H-Indazole-6-Carboxylic Acid] | 2500 | 7100 |
| CC(C)COc1ccc(Br)cc1Cn1ncc2ccc(C(=O)O)cc21 [Example 42, 1-(5-Bromo-2-Isobutoxy-Benzyl)-1H-Indazole-6-Carboxylic Acid] | 160 | 24 |
| Cc1nn(Cc2cc(Cl)ccc2OCC(C)C)c2ccc(C(=O)O)cc12 [Example 24, 1-(5-Chloro-2-Isobutoxy-Benzyl)-3-Methyl-1H-Indazole-5-Carboxylic Acid] | 160 | 20 |
| CCC(CC)COc1ccc(Br)cc1Cn1cnc2cc(C(=O)O)ccc21 [Example 78, 1-[5-Bromo-2-(2-Ethyl-Butoxy)-Benzyl]-1H-Benzoimidazole-5-Carboxylic Acid] | 3800 | 145 |
| CC(C)COc1ccc(Cl)cc1Cn1cc2cc(C(=O)O)ccc2n1 [Example 16, 2-(5-Chloro-2-Isobutoxy-Benzyl)-2H-Indazole-5-Carboxylic Acid] | 1500 | 90 |
| Cc1nn(Cc2cc(Cl)ccc2OCC(C)C)c2ncc(C(=O)O)cc12 [Example 61, 1-(5-Chloro-2-Isobutoxy-Benzyl)-3-Methyl-1H-Pyrazolo[3,4-B]Pyridine-5-Carboxylic Acid] | 740 | 180 |
| O=C(O)c1ccc2c(cnn2Cc2cc(Cl)ccc2OCC2CCCC2)c1 [Example 10, 1-(5-Chloro-2-Cyclopentylmethoxy-Benzyl)-1H-Indazole-5-Carboxylic Acid] | 440 | 50 |
| CCC(CC)COc1ccc(Br)cc1Cn1nc(C)c2cc(C(=O)O)cnc21 [Example 59, 1-[5-Bromo-2-(2-Ethyl-Butoxy)-Benzyl]-3-Methyl-1H-Pyrazolo[3,4-B]Pyridine-5-Carboxylic Acid] | 520 | 280 |
| CC(C)COc1ccc(OC(F)F)cc1Cn1ncc2cc(C(=O)O)ccc21 [Example 56, 1-(5-Difluoromethoxy-2-Isobutoxy-Benzyl)-1H-Indazole-5-Carboxylic Acid] | 1800 | 24 |
| CC(C)COc1ccc(S(C)(=O)=O)cc1Cn1ncc2cc(C(=O)O)ccc21 [Example 48, 1-(2-Isobutoxy-5-Methanesulfonyl-Benzyl)-1H-Indazole-5-Carboxylic Acid] | ≥ 10000 | 260 |
| CC(C)(O)COc1ccc(Br)cc1Cn1ncc2cc(C(=O)O)ccc21 [Example 53, 1-[5-Bromo-2-(2-Hydroxy-2-Methyl-Propoxy)-Benzyl]-1H-Indazole-5-Carboxylic Acid] | ≥ 10000 | 1500 |
| CC(C)COc1cc(Cl)c(Cl)cc1Cn1ncc2cc(C(=O)O)ccc21 [Example 49, 1-(4,5-Dichloro-2-Isobutoxy-Benzyl)-1H-Indazole-5-Carboxylic Acid] | 3500 | 540 |
| CCC(CC)COc1ccc(Br)cc1Cn1ccc2cc(C(=O)O)ccc21 [Example 69, 1-[5-Bromo-2-(2-Ethyl-Butoxy)-Benzyl]-1H-Indole-5-Carboxylic Acid] | 3700 | 250 |
| CC(C)COc1ccc(Br)cc1Cn1cnc2cc(C(=O)O)ccc21 [Example 79, 1-(5-Bromo-2-Isobutoxy-Benzyl)-1H-Benzoimidazole-5-Carboxylic Acid] | 2000 | 11 |
| CCC(CC)COc1ccc(Cl)cc1Cn1ncc2ccc(C(=O)O)cc21 [Example 6] | 7100 | ≥ 10000 |
| Cc1cn(Cc2cc(OC(F)(F)F)ccc2OCC(C)C)c2ccc(C(=O)O)cc12 [Example 75, 1-(2-Isobutoxy-5-Trifluoromethoxy-Benzyl)-3-Methyl-1H-Indole-5-Carboxylic Acid] | 1300 | 20 |
